Test results from ChEMBL document CHEMBL1201862, “PubChem BioAssay data set” (2004).
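Grown in 96-well plates, cells were treated for 48 hours with each compound at five concentrations. Insufficient inhibition: endpoint recorded as highest concentration tested. GI50 is the concentration that inhibits growth by half.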 Calls of active or inactive are those of the source. Cut-off read from the data, not from the text of the source: active = GI50 up to about 1.1 µM and inactive = higher.

How the values were obtained:
Test in all cases: DTP human tumour cell line panel, 48 h
[1] = tested on: A549
[2] = tested on: MDA-N
[3] = tested on: K562
[4] = tested on: U-251
[5] = tested on: KM12
[6] = tested on: RXF 393
[7] = tested on: Malme-3M
[8] = tested on: HL-60
[9] = tested on: HCT-116
[10] = tested on: HCC 2998
[11] = tested on: ACHN
[12] = tested on: NCI-H522
[13] = tested on: HT-29
[14] = tested on: MDA-MB-435
[15] = tested on: 786-0
[16] = tested on: MCF7
[17] = tested on: NCI-H226
[18] = tested on: M14
[19] = tested on: HOP-92
[20] = tested on: OVCAR-5
[21] = tested on: LOX IMVI
[22] = tested on: MDA-MB-231
[23] = tested on: SK-MEL-5
[24] = tested on: OVCAR-3
[25] = tested on: TK-10
[26] = tested on: PC-3
[27] = tested on: UO-31
[28] = tested on: MOLT-4
[29] = tested on: IGROV-1
[30] = tested on: OVCAR-8
[31] = tested on: SF-295
[32] = tested on: SNB-19
[33] = tested on: SK-OV-3
[34] = tested on: A498
[35] = tested on: HOP-62
[36] = tested on: HCT-15
[37] = tested on: CAKI-1
[38] = tested on: SR
[39] = tested on: UACC-62
[40] = tested on: SN12C
[41] = tested on: NCI-H460
[42] = tested on: OVCAR-4
[43] = tested on: DU-145
[44] = tested on: CCRF-CEM
[45] = tested on: SK-MEL-2
[46] = tested on: SF-268
[47] = tested on: COLO 205
[48] = tested on: EKVX
[49] = tested on: BT-549
[50] = tested on: RPMI-8226
[51] = tested on: SW-620
[52] = tested on: T47D
[53] = tested on: SNB-75
[54] = tested on: Hs-578T
[55] = tested on: NCI-H23
[56] = tested on: SF-539
[57] = tested on: NCI/ADR-RES
[58] = tested on: UACC-257
[59] = tested on: SK-MEL-28

CCCCc1ccc(Nc2nc3c(ncn3COCCBr)c(=O)[nH]2)cc1
GI50 [1]: > 100 µM (inactive)
GI50 [2]: > 100 µM (inactive)
GI50 [3]: > 100 µM (inactive)
GI50 [4]: > 100 µM (inactive)
GI50 [5]: > 100 µM (inactive)
GI50 [6]: 84.5 µM (inactive)
GI50 [7]: > 100 µM (inactive)
GI50 [8]: > 100 µM (inactive)
GI50 [9]: > 100 µM (inactive)
GI50 [10]: > 100 µM (inactive)
GI50 [11]: > 100 µM (inactive)
GI50 [12]: > 100 µM (inactive)
GI50 [13]: > 100 µM (inactive)
GI50 [14]: > 100 µM (inactive)
GI50 [15]: > 100 µM (inactive)
GI50 [16]: > 100 µM (inactive)
GI50 [17]: > 100 µM (inactive)
GI50 [18]: > 100 µM (inactive)
GI50 [19]: > 100 µM (inactive)
GI50 [20]: > 100 µM (inactive)
GI50 [21]: > 100 µM (inactive)
GI50 [22]: > 100 µM (inactive)
GI50 [23]: > 100 µM (inactive)
GI50 [24]: > 100 µM (inactive)
GI50 [25]: > 100 µM (inactive)
GI50 [26]: > 100 µM (inactive)
GI50 [27]: > 100 µM (inactive)
GI50 [28]: > 100 µM (inactive)
GI50 [29]: > 100 µM (inactive)
GI50 [30]: > 100 µM (inactive)
GI50 [31]: > 100 µM (inactive)
GI50 [32]: > 100 µM (inactive)
GI50 [33]: > 100 µM (inactive)
GI50 [34]: > 100 µM (inactive)
GI50 [35]: > 100 µM (inactive)
GI50 [36]: > 100 µM
GI50 [37]: > 100 µM (inactive)
GI50 [38]: 86.3 µM (inactive)
GI50 [39]: > 100 µM (inactive)
GI50 [40]: > 100 µM (inactive)
GI50 [41]: > 100 µM (inactive)
GI50 [42]: > 100 µM (inactive)
GI50 [43]: > 100 µM (inactive)
GI50 [44]: > 100 µM (inactive)
GI50 [45]: > 100 µM (inactive)
GI50 [46]: > 100 µM (inactive)
GI50 [47]: > 100 µM (inactive)
GI50 [48]: > 100 µM (inactive)
GI50 [49]: > 100 µM (inactive)
GI50 [50]: > 100 µM (inactive)
GI50 [51]: > 100 µM (inactive)
GI50 [52]: 40.1 µM (inactive)
GI50 [53]: > 100 µM (inactive)
GI50 [54]: > 100 µM (inactive)
GI50 [55]: > 100 µM (inactive)
GI50 [56]: > 100 µM (inactive)
GI50 [57]: > 100 µM (inactive)
GI50 [58]: > 100 µM (inactive)

CSC(CC(=O)O)C(=O)O (stereo unspecified)
GI50 [1]: > 100 µM (inactive)
GI50 [2]: > 100 µM (inactive)
GI50 [4]: > 100 µM (inactive)
GI50 [5]: > 100 µM (inactive)
GI50 [6]: > 100 µM (inactive)
GI50 [7]: > 100 µM (inactive)
GI50 [8]: > 100 µM (inactive)
GI50 [9]: > 100 µM (inactive)
GI50 [10]: 12.5 µM (inactive)
GI50 [11]: > 100 µM (inactive)
GI50 [12]: > 100 µM (inactive)
GI50 [13]: > 100 µM (inactive)
GI50 [14]: > 100 µM (inactive)
GI50 [15]: > 100 µM (inactive)
GI50 [16]: > 100 µM (inactive)
GI50 [17]: > 100 µM (inactive)
GI50 [18]: > 100 µM (inactive)
GI50 [19]: > 100 µM (inactive)
GI50 [20]: > 100 µM (inactive)
GI50 [21]: > 100 µM (inactive)
GI50 [22]: > 100 µM (inactive)
GI50 [23]: > 100 µM (inactive)
GI50 [24]: > 100 µM (inactive)
GI50 [25]: > 100 µM (inactive)
GI50 [26]: > 100 µM (inactive)
GI50 [27]: > 100 µM (inactive)
GI50 [28]: > 100 µM (inactive)
GI50 [29]: > 100 µM (inactive)
GI50 [30]: > 100 µM (inactive)
GI50 [31]: > 100 µM (inactive)
GI50 [32]: > 100 µM (inactive)
GI50 [33]: > 100 µM (inactive)
GI50 [34]: > 100 µM (inactive)
GI50 [35]: > 100 µM (inactive)
GI50 [36]: > 100 µM
GI50 [37]: > 100 µM (inactive)
GI50 [38]: > 100 µM (inactive)
GI50 [39]: > 100 µM (inactive)
GI50 [40]: > 100 µM (inactive)
GI50 [41]: > 100 µM (inactive)
GI50 [42]: > 100 µM (inactive)
GI50 [43]: > 100 µM (inactive)
GI50 [44]: > 100 µM (inactive)
GI50 [45]: > 100 µM (inactive)
GI50 [46]: > 100 µM (inactive)
GI50 [47]: > 100 µM (inactive)
GI50 [48]: > 100 µM (inactive)
GI50 [49]: > 100 µM (inactive)
GI50 [50]: > 100 µM (inactive)
GI50 [51]: > 100 µM (inactive)
GI50 [52]: > 100 µM (inactive)
GI50 [53]: > 100 µM (inactive)
GI50 [54]: > 100 µM (inactive)
GI50 [55]: > 100 µM (inactive)
GI50 [56]: > 100 µM (inactive)
GI50 [57]: > 100 µM (inactive)
GI50 [58]: > 100 µM (inactive)
GI50 [59]: > 100 µM (inactive)
